Experimental data reported in patent US5308843A, “Method of inhibiting mammalian topoisomerase II and malignant cell growth in mammals, with substituted (S)-3-methyl-7-oxo-2,3-dihydro-7H-pyrido[1,2,3-de][1,4 ]-benzoxazine(and-benzothiazine)-6-carboxylic acids” (Sterling Drug Inc., priority 1990, dated 1994).
One block for each molecule: values may come before it.

Assays:
human topoisomerase II = molecular target: T1, human topoisomerase II (Homo sapiens, UniProt P11388); assay: Mammalian (human) topoisomerase II inhibition assay: topo II-DNA complex stabilisation; format: biochemical; settings: concentration with activity equal to the EC50 of reference mAMSA; 20 min at 37° C.
T1 construct: Topo II was purified from late log phase suspension cultures of HeLa WIS; endogenous in cells; host or cells: HeLa WIS (late log phase suspension cultures); native enzyme purified in house
Text: Mammalian Topoisomerase II Inhibition Assay Procedure
The inhibition of human topoisomerase II (hereafter topo II) was quantitated by a procedure adapted from that described by Trask et al., EMBO J., 3, 671-676 (1984). The assay quantitates the amount of topo II covalently complexed by DNA at equilibrium during a topo II reaction. This assay determines the potential of a compound to stabilize this complex, which potential is closely related to the cytotoxicity of the compound.
Topo II was purified from late log phase suspension cultures of HeLa WIS by an adaption of the method described by Per et al., Mol. Pharmacol., 32, 17-25 (1987).
Assays (in duplicate) were assembled at 4° C. Assay mix (25 μl) was distributed in Beckman (No. 265270) 1.5 ml microtitre tubes followed by the addition of 5 μl test compound to yield the final concentrations of assay components:
4 ng 3' end labeled (32p) pBR322 DNA (10^7 DPM/μg)
The assay mix including the test compound was incubated for 20 minutes at 37° C. The reaction was terminated at 37° C. by the addition of 3 μl 10% SDS followed by the addition of 266 μl 10 mM Tris-Cl pH 7.5, 20 μg/ml BSA, 20 μg/ml calf thymus DNA, 1% SDS.
A SDS/protein precipitate was formed by the addition of 28 μl 2.5M KCl followed by chilling on ice for a minimum of 10 minutes. The precipitate was collected and washed with a Brandell cell harvester on a GFB glass fiber filter membrane as follows. The contents of the assay tube were drawn up into the harvester. The tube was then rinsed 7× with 10 mM Tris-Cl pH 7.5, 1 mM EDTA and 100 mM KCl. The precipitate was washed with 1 L of a solution of 10 mM Tris-Cl pH 7.5, 1 mM EDTA, 100 mM KCl followed by 1 L of 95% ethyl alcohol and finally 0.5 L 70% of ethyl alcohol (per 48 samples in each case). After drying, CPM was determined by liquid scintillation counting with 5 ml Biofluor (NEN Research Products) or Readisafe (Beckman Instruments Inc.) cocktail.
Preparation of test compound--A stock solution (6 mg/ml) of test compound was prepared either in 0.1N sodium hydroxide or 0.2N hydrogen chloride. This solution then was diluted 1/5 into water and serially thereafter in either 0.02N sodium hydroxide or 0.04N hydrogen chloride, respectively. The stock solution and serial dilution of the test compound was stored at -20° C. prior to testing.
Screening of test compound--As an initial screen, the test compound was tested at a final concentration of 2, 20 and 200 μg/ml.
Controls--A solvent control which indicates the base level of topo II-DNA complex formed in the absence of the test compound was included in each test. A control, in which topo II was omitted, was included for each test compound at the highest drug concentration tested.
Reference agent--A dose response curve with mAMSA at 0.01, 0.08, 0.16, 0.32, 1.0 and 10 μg/ml was included in each test.
Data reduction--The EC50 (effective concentration at which 50% of the maximal DNA-topo II complex is formed) of a test compound is defined to be the concentration with activity equal to the EC50 of the reference agent, mAMSA. The maximal DNA-topo II complex formed is taken as that equal to that formed at the nearly saturating dose of mAMSA (10 μg/ml).

[1] = tested on: DNA topoisomerase II from calf thymus; settings: Hussy et al. 1986; cited from earlier work
[2] = tested on: purified eukaryotic topoisomerase II; settings: Barrett et al. 1987; cited from earlier work
[3] = tested on: topoisomerase II of fetal calf thymus; settings: among compared quinolones, Hoshino et al. 1989; cited from earlier work
[4] = tested on: procaryotic and eucaryotic topoisomerase enzymes; settings: Jefson et al. 1989; cited from earlier work

T1 sequence (P11388 whole entry): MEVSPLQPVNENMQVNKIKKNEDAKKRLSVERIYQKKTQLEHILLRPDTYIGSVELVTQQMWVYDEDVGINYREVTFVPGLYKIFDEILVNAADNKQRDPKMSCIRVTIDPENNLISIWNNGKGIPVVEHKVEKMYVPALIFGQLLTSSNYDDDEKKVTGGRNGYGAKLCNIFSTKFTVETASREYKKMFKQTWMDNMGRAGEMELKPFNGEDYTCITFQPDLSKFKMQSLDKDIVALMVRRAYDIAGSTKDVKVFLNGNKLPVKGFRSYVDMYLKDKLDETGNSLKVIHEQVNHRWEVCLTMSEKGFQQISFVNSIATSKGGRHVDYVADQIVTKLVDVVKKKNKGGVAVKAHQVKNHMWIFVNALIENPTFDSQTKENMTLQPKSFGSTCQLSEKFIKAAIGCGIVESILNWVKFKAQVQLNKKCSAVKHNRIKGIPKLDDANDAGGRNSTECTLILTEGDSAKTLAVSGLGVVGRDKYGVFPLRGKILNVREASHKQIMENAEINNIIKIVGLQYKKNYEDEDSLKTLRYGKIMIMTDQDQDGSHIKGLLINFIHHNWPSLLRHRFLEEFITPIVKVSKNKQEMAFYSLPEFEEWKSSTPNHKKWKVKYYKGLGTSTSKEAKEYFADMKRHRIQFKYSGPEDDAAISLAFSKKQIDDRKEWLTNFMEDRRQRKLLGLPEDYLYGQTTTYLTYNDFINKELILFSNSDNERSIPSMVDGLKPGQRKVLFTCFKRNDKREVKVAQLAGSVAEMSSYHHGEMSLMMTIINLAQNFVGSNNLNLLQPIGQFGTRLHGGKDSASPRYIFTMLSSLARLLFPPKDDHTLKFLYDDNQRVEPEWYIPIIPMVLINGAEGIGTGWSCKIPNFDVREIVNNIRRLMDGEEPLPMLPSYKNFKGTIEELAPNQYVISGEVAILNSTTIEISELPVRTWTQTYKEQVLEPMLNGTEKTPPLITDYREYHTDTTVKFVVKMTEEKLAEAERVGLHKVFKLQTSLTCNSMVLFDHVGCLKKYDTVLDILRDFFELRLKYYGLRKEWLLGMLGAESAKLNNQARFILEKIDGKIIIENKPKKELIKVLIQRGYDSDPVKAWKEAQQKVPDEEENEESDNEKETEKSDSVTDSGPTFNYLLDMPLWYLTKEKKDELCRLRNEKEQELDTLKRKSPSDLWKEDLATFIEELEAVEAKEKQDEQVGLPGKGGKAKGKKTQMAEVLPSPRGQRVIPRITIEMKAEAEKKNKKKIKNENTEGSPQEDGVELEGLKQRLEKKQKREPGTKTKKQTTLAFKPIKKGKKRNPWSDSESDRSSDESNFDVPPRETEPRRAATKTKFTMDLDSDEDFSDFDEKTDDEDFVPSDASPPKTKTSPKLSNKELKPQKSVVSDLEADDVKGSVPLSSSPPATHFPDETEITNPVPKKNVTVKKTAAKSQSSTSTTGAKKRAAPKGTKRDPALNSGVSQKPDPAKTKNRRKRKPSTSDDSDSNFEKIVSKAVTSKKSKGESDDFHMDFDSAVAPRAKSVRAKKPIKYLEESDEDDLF

SMILES: CCn1cc(C(=O)O)c(=O)c2cc(F)c(N3CCNCC3)cc21 [norfloxacin, 1-ethyl-6-fluoro-7-(1-piperazinyl)-1,4-dihydro-4-oxo-3-quinolinecarboxylic acid]
Ki values of 50% inhibition [1]: 300 µg/mL
enhancement/induction of DNA cleavage mediated by topoisomerase II (in words) [2]: not to be potent enhancers of DNA cleavage mediated by topoisomerase II

SMILES: CC1COc2c(N3CCN(C)CC3)c(F)cc3c(=O)c(C(=O)O)cn1c23 (centres unmarked) [ofloxacin, 9-fluoro-3-methyl-10-(4-methyl-1-piperazinyl)-7-oxo-2,3-dihydro-7H-pyrido[1,2,3-de][1,4]benzoxazine-6-carboxylic acid]
potency of inhibition of topoisomerase II (in words) [3]: lowest
Ki values of 50% inhibition [1]: 1300 µg/mL

SMILES: Cc1cc(-c2c(F)cc3c(=O)c(C(=O)O)cn4c3c2[S@@+]([O-])CC4C)cc(C)n1 (stereo partly drawn) [Example 4, (S)-10-(2,6-Dimethyl-4-pyridinyl)-9-fluoro-3-methyl-7-oxo-2,3-dihydro-7H-pyrido[1,2,3-de][1,4]benzothiazine-6-carboxylic acid 1-oxide]
EC50 (human topoisomerase II): 62 µM

SMILES: C[C@H]1COc2c(-c3ccncc3)c(F)cc3c(=O)c(C(=O)O)cn1c23 [S-(-)-CP-92,121, (S)-9-fluoro-3-methyl-10-(4-pyridyl)-7-oxo-7H-pyrido[1,2,3-de][1,4]benzoxazine-6-carboxylic acid]
combined activity against procaryotic and eucaryotic topoisomerase enzymes (in words) [4]: combined potent activity

SMILES: CCn1cc(C(=O)O)c(=O)c2cc(F)c(-c3ccncc3)c(F)c21 [CP-67,015, 6,8-difluoro-1-ethyl-7-(4-pyridyl)-1,4-dihydro-4-oxo-3-quinolinecarboxylic acid]
enhancement/induction of DNA cleavage mediated by topoisomerase II (in words) [2]: induced significant DNA cleavage in both the radiolabeled and cold cleavage assays

SMILES: O=C(O)c1cn(C2CC2)c2cc(N3CCNCC3)c(F)cc2c1=O [ciprofloxacin, 1-cycloproyl-6-fluoro-7-(1-piperazinyl)-1,4-dihydro-4-oxo-3-quinolinecarboxylic acid]
Ki values of 50% inhibition [1]: 150 µg/mL

SMILES: C[C@H]1COc2c(-c3ccc4ncccc4c3)c(F)cc3c(=O)c(C(=O)O)cn1c23 [S-(-)-CP-100,964, (S)-9-fluoro-3-methyl-10-(6-quinolyl)-7-oxo-7H-pyrido[1,2,3-de][1,4]benzoxazine-6-carboxylic acid]
combined activity against procaryotic and eucaryotic topoisomerase enzymes (in words) [4]: combined potent activity

Next, values leading:

EC50 (human topoisomerase II): 50 µM
SMILES: Cc1cc(-c2c(F)c(F)c3c(=O)c(C(=O)O)cn4c3c2OC[C@@H]4C)cc(C)n1 [Example 6, (S)-10-(2,6-Dimethyl-4-pyridinyl)-8,9-difluoro-3-methyl-7-oxo-2,3-dihydro-7H-pyrido[1,2,3-de][1,4]benzoxazine-6-carboxylic acid]

EC50 (human topoisomerase II): 57 µM
SMILES: C[C@H]1COc2c(-c3ccncc3)c(F)cc3c(=O)c(C(=O)O)cn1c23 [1(b), (S)-10-(4-Pyridinyl)-9-fluoro-2,3-dihydro-3-methyl-7-oxo-7H-pyrido[1,2,3-de][1,4]benzoxazine-6-carboxylic acid]

EC50 (human topoisomerase II): 92 µM
SMILES: CCc1cc(-c2c(F)cc3c(=O)c(C(=O)O)cn4c3c2OC[C@@H]4C)ccn1 [3(c), (S)-10-(2-Ethyl-4-pyridinyl)-9-fluoro-2,3-dihydro-3-methyl-7-oxo-7H-pyrido[1,2,3-de][1,4]benzoxazine-6-carboxylic acid]

EC50 (human topoisomerase II): 31 µM
SMILES: Cc1cc(-c2c(F)cc3c(=O)c(C(=O)O)cn4c3c2OC[C@@H]4C)cc(C)n1 [Example 7, (S)-10-(2,6-Dimethyl-4-pyridinyl)-9-fluoro-3-methyl-7-oxo-2,3-dihydro-7H-pyrido[1,2,3-de][1,4]benzoxazine-6-carboxylic acid]

EC50 (human topoisomerase II): 68 µM
SMILES: CCc1cc(-c2c(F)cc3c(=O)c(C(=O)O)cn4c3c2OC[C@@H]4C)cc(C)n1 [Example 2(d), (S)-10-(2-Ethyl-6-methyl-4-pyridinyl)-9-fluoro-2,3-dihydro-3-methyl-7-oxo-7H-pyrido[1,2,3-de][1,4]benzoxazine-6-carboxylic acid]
